The values that follow are results of earlier work, collected in patent publication US20160074380A1, “Treatment Of Neurodegenerative Diseases With Combination Of Laquinimod And Fingolimod” (TEVA PHARMACEUTICAL INDUSTRIES LTD., priority 2014, published 2016).

For this data set, the system named is mouse-cultured cortical cells. The settings on record: pretreatment; Di Menna, 2013; cited from earlier work.

With `CCCCCCCCc1ccc(CC[C@](N)(CO)COP(=O)(O)O)cc1` [FTY 720-P, fingolimod-phosphate], the “protection of neurons against NMDA toxicity” value was “protected neurons against NMDA toxicity”. With `CCCCCCCCCCCCC/C=C/[C@@H](O)[C@@H](N)COP(=O)(O)O` [S1P, sphingosine 1-phosphate], the “protection of neurons against NMDA toxicity” value was “protected neurons against NMDA toxicity”.
